Experimental data published in US6884814B2, “Phenyl benzisoxazoles as estrogenic agents” (Wyeth, priority 2001, dated 2005).

Assays:
human ERβ = target: T1, human ERβ (Homo sapiens, UniProt Q92731); assay: Radioligand binding competition with [3H]-17β-estradiol, ERβ; details: human ERβ ligand binding domain, E. coli lysate, read-out: ER-β IC50
T1 construct: M214-Q530 of human ERβ; Flag (C); made in house; host or cells: E. coli BL21(DE3), clarified lysate

human ERα = target: T2, human ERα (Homo sapiens, UniProt P03372); assay: Radioligand binding competition with [3H]-17β-estradiol, ERα; details: human ERα ligand binding domain, E. coli lysate, read-out: ER-α IC50
T2 construct: amino acids M250-V595 of human ERα; His (N); made in house; host or cells: E. coli BL21(DE3), clarified lysate
T2 sequence (P03372 250-595): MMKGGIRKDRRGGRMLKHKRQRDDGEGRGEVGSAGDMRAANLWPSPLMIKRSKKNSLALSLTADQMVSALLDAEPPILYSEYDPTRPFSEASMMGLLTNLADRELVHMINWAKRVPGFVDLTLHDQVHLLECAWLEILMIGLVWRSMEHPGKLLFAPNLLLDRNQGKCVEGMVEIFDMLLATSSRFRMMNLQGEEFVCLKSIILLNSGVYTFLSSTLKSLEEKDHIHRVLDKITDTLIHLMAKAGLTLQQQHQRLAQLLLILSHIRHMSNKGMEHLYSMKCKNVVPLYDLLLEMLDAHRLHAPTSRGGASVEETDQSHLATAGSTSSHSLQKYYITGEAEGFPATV

T1 sequence (Q92731 214-530): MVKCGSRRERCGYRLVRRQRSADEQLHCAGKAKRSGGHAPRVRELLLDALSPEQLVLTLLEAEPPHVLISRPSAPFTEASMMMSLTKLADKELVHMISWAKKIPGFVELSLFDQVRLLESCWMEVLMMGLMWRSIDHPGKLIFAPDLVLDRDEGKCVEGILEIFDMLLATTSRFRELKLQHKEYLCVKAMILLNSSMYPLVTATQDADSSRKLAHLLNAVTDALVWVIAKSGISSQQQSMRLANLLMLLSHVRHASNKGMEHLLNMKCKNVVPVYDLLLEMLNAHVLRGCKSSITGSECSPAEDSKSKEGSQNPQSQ

Compound	IC50 (human ERβ) [nM]	IC50 (human ERα) [nM]	melting point [°C]
CCCc1cc(-c2noc3cc(O)ccc23)c(CC(C)C)cc1O [Example 4, 3-(4-Hydroxy-2-isobutyl-5-propylphenyl)-1,2-benzisoxazol-6-ol]	20	38	–
Oc1ccc2c(-c3ccccc3O)noc2c1 [Example 9, 3-(2-Hydroxyphenyl)-1,2-benzisoxazol-6-ol]	–	5000	–
Oc1ccc(-c2noc3c(Br)cc(O)cc23)cc1 [Example 13, 7-Bromo-3-(4-hydroxyphenyl)-1,2-benzisoxazol-5-ol]	208	2000	267 to 270
Oc1ccc(O)c(-c2noc3cc(O)ccc23)c1 [Example 10, 2-(6-Hydroxy-1,2-benzisoxazol-3-yl)benzene-1,4-diol]	254	3000	215 to 217
